Data from publication PMC3448000 (Biochemistry, 2012).
Where “and” joins values, the source holds several entries; their conditions need not be identical. Identical values can stand only once. Like-named read-outs stand apart in the source and are kept apart here. Blank lines part the entries; values can stand above or below the compound they belong to.

What was measured:
[1] = system: human Methionine Amino Peptidase 2; conditions: cited from earlier work
[2] = target: T1, CYP3A4 (Homo sapiens, UniProt P08684); assay: Substrate depletion by CYP3A4 Supersomes; type: in vitro ADME
[3] = system: CYP3A4; assay: UV/vis absorbance titration of purified CYP3A4; type: binding, human; conditions: for optical binding spectrum type: UV/vis difference spectrum; for Soret Red Shift: comparison of 1,2,3-TRZ and 17-click
[4] = target: T1, CYP3A4; assay: Inhibition of testosterone 6β-hydroxylation by CYP3A4 in Supersomes; type: biochemical; conditions: 50 μM testosterone, LC-MS/MS
[5] = system: CYP2B4; conditions: 25°C; relative to 1-PI / 4-PI; cited from earlier work
[6] = system: CYP3A4; conditions: cited from earlier work
[7] = system: CYP3A4; conditions: CYP3A4 Supersomes, cited from earlier work
[8] = cited from earlier work; for pKa: solution pKa
[9] = system: CYP2C9 (hepta mutant); assay: UV/vis absorbance titration of purified CYP2C9; type: binding, human
[10] = system: CYP3A4; conditions: 5–30 °C, 100 mM KPi pH 7.4 + 20% glycerol
[11] = 20°C, 100 mM KPi pH 7.4 + 20% glycerol

T1 sequence (P08684 whole entry): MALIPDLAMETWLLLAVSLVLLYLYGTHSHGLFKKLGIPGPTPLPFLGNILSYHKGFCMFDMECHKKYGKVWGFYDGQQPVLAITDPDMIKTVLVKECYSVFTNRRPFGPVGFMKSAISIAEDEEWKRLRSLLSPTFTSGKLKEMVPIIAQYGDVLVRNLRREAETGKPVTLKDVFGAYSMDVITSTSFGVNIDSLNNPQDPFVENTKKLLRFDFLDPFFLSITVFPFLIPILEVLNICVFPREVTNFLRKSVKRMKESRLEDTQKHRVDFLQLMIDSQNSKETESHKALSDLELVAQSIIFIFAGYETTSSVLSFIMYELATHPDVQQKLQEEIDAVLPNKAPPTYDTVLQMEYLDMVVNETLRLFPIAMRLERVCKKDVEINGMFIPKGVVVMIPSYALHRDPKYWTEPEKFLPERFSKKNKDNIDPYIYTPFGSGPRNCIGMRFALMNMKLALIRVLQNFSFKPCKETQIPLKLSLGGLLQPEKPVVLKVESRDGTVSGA

Structure (SMILES): Cc1cccc(-c2c[nH]nn2)c1 [4-(3-methylphenyl)-1H-1,2,3-triazole]
affinity [1]: 0.018 µM

compound remaining ([2]; 2.5 μM substrate, 25 min incubation, 100 nM CYP3A4 in Supersomes): ~ 50%
metabolism slowed relative to the parent molecule ([2]; CYP3A4 Supersomes, relative to 17EE): 3 – 10 fold
Km ([2]; read-out: KM for total metabolism, substrate depletion, CYP3A4 Supersomes): 2.5 ± 0.4 µM
kcat for total metabolism ([2]; substrate depletion, CYP3A4 Supersomes): 0.035 ± 0.005 s⁻¹
Kd ([3]; 25°C, 100 mM KPi, hyperbolic binding model): 45.8 µM and 46 µM
optical binding spectrum type [3]: type II
Soret Red Shift [3]: 2 nm
Kd ([3]; read-out: KD200mM, 200 mM KPi): 78 µM
IC50 [4]: 17 ± 6 µM
Structure (SMILES): CC12CCC3c4ccc(O)cc4CCC3C1CCC2(O)c1cn[nH]n1 (stereo not drawn) [17-click, 17α-(2H-2,3,4-triazolyl)-estradiol]

Structure (SMILES): Clc1ccc(-n2ccnc2)cc1 [1-CPI]
ΔΔH°binding on chloro substitution [5]: -0.07 kcal/mol

Structure (SMILES): c1nc[nH]n1 [1,2,4-TRZ, 1H-1,2,4-triazole]
Abs390 (1μM), estimate of efficiency of type II ligand to decrease high spin enzyme fraction ([3]; 20°C): −0.025
Soret band red shift ([3]; 20°C): 6 nm
Absmax (1μM), first value of two site fit ([3]; 20°C, two site model): 0.0065
Absmax (1μM), second value of two site fit ([3]; 20°C, two site model): 0.050
Kd ([3]; read-out: KD1, 20°C, two site binding model, first (high affinity) equivalent): 39 µM
Kd ([3]; read-out: KD2, 20°C, two site binding model, second (low affinity) equivalent): 4800 µM
pKa [8]: 2.45
Soret band red shift ([9]; 20°C): 5 nm
Absmax (1μM), first value of two site fit ([9]; 20°C, two site model): 0.023
Absmax (1μM), second value of two site fit ([9]; 20°C, two site model): 0.044
Kd ([9]; read-out: KD1, 20°C, two site binding model, first equivalent): 198 µM
Kd ([9]; read-out: KD2, 20°C, two site binding model, second low affinity equivalent): 2850 µM

Structure (SMILES): c1c[nH]nn1 [1,2,3-TRZ, 1H-1,2,3-triazole]
ΔH°binding [10]: -8.8 ± 0.1 kcal/mol
ΔS°binding [10]: −22 ± 0.4 cal/mol/K
Abs390 (1μM), estimate of efficiency of type II ligand to decrease high spin enzyme fraction ([3]; 20°C): −0.023
Absmax (1μM), maximum peak trough intensity normalized to 1 μM ([3]; 20°C): 0.058
Soret band red shift ([3]; 20°C): 6 nm
Kd [3, 11]: 14300 µM
optical binding spectrum type [3]: type II
Soret Red Shift [3]: 6 nm
fold lower affinity vs. IMZ ([3]; from KD): ~ 38 fold
ΔAbsmax (1μM), peak minus trough intensity from difference spectrum ([3]; normalized to 1 μM): 0.058
pKa [8]: 1.15
Absmax (1μM), maximum peak trough intensity normalized to 1 μM ([9]; 20°C): 0.041
Soret band red shift ([9]; 20°C): 2 nm
Kd [9, 11]: 10000 µM
optical binding spectrum type ([9]; UV/vis difference spectrum): type II
fold lower affinity vs. 1,2,4-TRZ ([9]; from KD): ~50 fold
fold lower affinity vs. IMZ ([9]; from KD): ~ 101 fold

ΔH°binding [10]: -8.1 ± 0.3 kcal/mol
ΔS°binding [10]: −10 ± 1 cal/mol/K
Structure (SMILES): c1c[nH]cn1 [IMZ, imidazole]
pKa298K ([8]; proton dissociation in 100 mM potassium chloride): 7.09 ± 0.1
pKa [8]: 6.99
